Reference: publication PMC10107299, “Neutralizing the Impact of the Virulence Factor LecA from Pseudomonas aeruginosa on Human Cells with New Glycomimetic Inhibitors” (Angewandte Chemie (International Ed. in English), 2023)
Several values for one entry are separate records, joined by “and”; a condition that tells them apart may be missing. Equal values may be shown once. Read-outs that look alike come from different tables or passages of the source.

Tests used:
in vitro = in vitro ADME; settings: pH 7.4, 37 °C
Procedure: Then, we analyzed the stability of the compounds in plasma. […] The observed increase in plasma stability of the tested amide derivatives compared to bisacylhydrazone 14 supports our design hypothesis for the isosteric replacement of the bisacylhydrazone linking motif. […]
Each compound dissolved in DMSO was added to mouse plasma (pH 7.4, 37 °C) or to human plasma (pH 7.4, 37 °C) to yield a final concentration of 1 µM. In addition, procaine and procainamide (dissolved in DMSO) were added to mouse plasma or to human plasma (pH 7.4, 37 °C) to yield a final concentration of 1 µM. Procaine served as positive control as it is unstable in mouse plasma. Procainamide served as negative control as it is stable in mouse plasma. The samples were incubated for 0 min, 15 min, 30 min, 60 min, 90 min, 120 min and 240 min at 37 °C. At each time point, 10 µl of the respective sample was extracted with 90 µL acetonitrile containing 12.5 ng/mL caffeine as internal standard for 5 min at 2000 rpm on a MixMate vortex […]
mixer (Eppendorf). Acetonitrile and caffeine were dispensed using a Mantis Formulatrix. Then samples were centrifuged for 20 min at 2.270 x g at 4 °C and the supernatants were transferred to 96-well Greiner V-bottom plates. Peak areas of each compound and of the internal standard were analyzed using the MultiQuant 3.0 software (AB Sciex). Peak areas of the respective compound were normalized to the internal standard peak area and to the respective peak areas at time point 0 min: (C/D)/(A/B) with A: peak area of the compound at time point 0 min, B: peak area of the internal standard at time point 0 min, C: peak area of the compound at the respective time point, D: peak area of the internal standard at the respective time point. […]
2 hours at 800 rpm on an Eppendorf MixMate vortex-mixer. Then samples were withdrawn from the respective chambers. To 25 µL of each dialysis sample, 25 µL of plasma and to 25 µL of plasma sample, 25 µL of dialysis buffer was added. Then 150 µL ice-cold extraction solvent (ACN/H2O (90:10) containing 12.5 ng/mL caffeine as internal standard) was added. Samples were incubated for 30 min on ice. Then samples were centrifuged at 4 °C at 2270 x g for 10 min.

[1] = In vitro metabolic stability, mouse liver microsomes; type: in vitro ADME; settings: N=3, read-out: CLint MLM
Procedure: Acetonitrile and caffeine were dispensed using a Mantis Formulatrix. Then samples were centrifuged for 20 min at 2.270 x g at 4 °C and the supernatants were transferred to 96-well Greiner V-bottom plates. Peak areas of each compound and of the internal standard were analyzed using the MultiQuant 3.0 software (AB Sciex). Peak areas of the respective compound were normalized to the internal standard peak area and to the respective peak areas at time point 0 min: (C/D)/(A/B) with A: peak area of the compound at time point 0 min, B: peak area of the internal standard at time point 0 min, C: peak area of the compound at the respective time point, D: peak area of the internal standard at the respective time point.
In vitro metabolic stability assay
Liver microsomes (mouse and human, Thermo Fisher) were thawed slowly on ice. 20 mg/mL of microsomes, 2 µL of a 100 µM solution of every compound and 183 µL of 100 mM phosphate buffer were incubated 5 min at 37 °C in a water bath. Reactions were initiated using 10 µL of 20 mM NADPH (CarlRoth). Samples were incubated in three replicates at 37 °C under gentle agitation at 150 rpm. At 0, 5, 15, 30, and 60 min, reactions were terminated by the addition of 180 µL acetonitrile using a Mantis Formulatrix dispenser. Samples were vortexed for 5 min using an Eppendorf MixMate vortex mixer and centrifuged at 2.270 x g for 20 min at 4 °C. The supernatants were transferred to 96-well Greiner V-bottom plates, sealed and analyzed according to the section HPLC-MS analysis. Peak areas of the respective time point of the compounds were normalized to the peak area at time point 0 min. Then half-life was calculated using linear regression (Microsoft Excel). Clint [µL/min/mg protein] was calculated using the following formula: […]

LecA = biological target: T1, LecA (Pseudomonas aeruginosa, UniProt Q05097); experiment: Inhibition of LecA-AF488 binding to H1299 cells, flow cytometry; type: cell-based; settings: for IC50: IC50 for inhibition of LecA binding to H1299 cells, N=3; for IC50 / Decrease of LecA binding to H1299 cells: 0.16 μM LecA-AF488, flow cytometry; for Inhibition of lectin binding to the cells: 7.5 μM and above, flow cytometry
T1 construct: made in house
T1 sequence (Q05097 whole entry): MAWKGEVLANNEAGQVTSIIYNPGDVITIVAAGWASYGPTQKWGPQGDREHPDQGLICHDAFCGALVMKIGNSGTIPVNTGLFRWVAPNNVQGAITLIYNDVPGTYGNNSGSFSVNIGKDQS
Procedure: Next, we investigated the two most promising compounds H2 and L2 for their efficacy to inhibit LecA binding to H1299 human lung epithelial cells using flow cytometry and confocal microscopy. To this end, LecA was fluorescently labelled with Alexa Fluor 488 NHS ester (LecA‐AF488), incubated with varying concentrations of the inhibitors (100 nM to 10 μM) and subsequently added to the cells.
For flow cytometry analysis, inhibitors were preincubated with 0.16 μM LecA prior addition to the H1299 cells. After incubation for 30 min, fluorescence intensity was recorded at the flow cytometer. […] In contrast, 10 μM of the corresponding monovalent ligands G2 and K2 were required for 50 % inhibition (Figure S10).
H1299 cells were detached with 2 mL of 1.5 mM EDTA in PBS, 1.2 × 10^5 cells were counted and transferred to a U-bottom 96 well plate (Sarstedt AG & Co. KG, Numbrecht, Germany).
For flow cytometry assay, the optimal LecA concentration was established following a lectin titration (0.04–0.5 µM LecA-AF488) with H1299 cells. The histogram of fluorescence intensity […]
µM LecA-AF488 was used in flow cytometry experiments. LecA-AF488 was preincubated with PNPG, G2, K2, H2 or L2 in RPMI medium, for 20 min at room temperature and protected from light. The ligand-LecA solution was then added to the cells and further incubated for 30 min at 4 °C. H1299 cells were resuspended with medium in absence of lectin or inhibitor represented the negative assay control, while cells incubated only with LecA-AF488 (no inhibitor) served as the positive control. Subsequently, cells were centrifuged at 1600 × g for 3 min at 4 °C to remove unbound lectin. The samples were then washed twice with ice-cold FACS buffer (PBS (-/-) supplemented with 3% FCS (v/v)). After the last washing step, the cells were re-suspended in FACS buffer and transferred to FACS tubes (Kisker Biotech GmbH Co. KG, Steinfurt, Germany) on ice and in absence of light. The fluorescence intensity of treated cells was measured with FACS Gallios from Beckman Coulter. […]

[2] = human plasma, read-out: Plasma stability t1/2 Human
[3] = mouse plasma, read-out: Plasma stability t1/2 Mouse

| Compound | half-life at 1 µM (in vitro; [2]) | half-life at 1 µM (in vitro; [3]) | microsomal CLint at 1 µM [1] | IC50 (LecA) | Decrease of LecA binding to H1299 cells (LecA; 250 nM inhibitor) | Decrease of LecA binding to H1299 cells (LecA; 1 μM inhibitor) | Inhibition of lectin binding to the cells (LecA) |
| --- | --- | --- | --- | --- | --- | --- | --- |
| O=C(/C=C/c1ccc(O[C@@H]2O[C@H](CO)[C@H](O)[C@H](O)[C@H]2O)cc1)Nc1ccc(OCCOc2ccc(NC(=O)/C=C/c3ccc(O[C@@H]4O[C@H](CO)[C@H](O)[C@H](O)[C@H]4O)cc3)cc2)cc1 [Compound D1] | 3.73 h | 3 h | 22.4 µL/min/mg | – | – | – | – |
| O=C(CCc1ccc(O[C@@H]2O[C@H](CO)[C@H](O)[C@H](O)[C@H]2O)cc1)Nc1ccc(OCCOc2ccc(NC(=O)CCc3ccc(O[C@@H]4O[C@H](CO)[C@H](O)[C@H](O)[C@H]4O)cc3)cc2)cc1 [Compound D2] | 2.21 h | 3.04 h | 29.6 µL/min/mg | – | – | – | – |
| COc1ccc(NC(=O)CCc2ccc(O[C@@H]3O[C@H](CO)[C@H](O)[C@H](O)[C@H]3O)cc2)cn1 [Compound G2] | – | – | – | 2.8 µM and 2.79 µM | – | – | – |
| O=C(/C=C/c1ccc(O[C@@H]2O[C@H](CO)[C@H](O)[C@H](O)[C@H]2O)cc1)Nc1ccc(OCCOc2ccc(NC(=O)/C=C/c3ccc(O[C@@H]4O[C@H](CO)[C@H](O)[C@H](O)[C@H]4O)cc3)cn2)nc1 [Compound H1] | > 4 h | > 3 h | 17.5 µL/min/mg | – | – | – | – |
| O=C(CCc1ccc(O[C@@H]2O[C@H](CO)[C@H](O)[C@H](O)[C@H]2O)cc1)Nc1ccc(OCCOc2ccc(NC(=O)CCc3ccc(O[C@@H]4O[C@H](CO)[C@H](O)[C@H](O)[C@H]4O)cc3)cn2)nc1 [Compound H2] | 3.58 h | 1.35 h | 6.8 µL/min/mg | 0.54 µM | 16% | 50% | complete inhibition |
| Cc1ccc(NC(=O)CCc2ccc(O[C@@H]3O[C@H](CO)[C@H](O)[C@H](O)[C@H]3O)cc2)cc1S(=O)(=O)O [Compound K2] | – | – | – | 1.9 µM and 1.89 µM | – | – | – |
| O=C(CCc1ccc(O[C@@H]2O[C@H](CO)[C@H](O)[C@H](O)[C@H]2O)cc1)Nc1ccc(CCc2ccc(NC(=O)CCc3ccc(O[C@@H]4O[C@H](CO)[C@H](O)[C@H](O)[C@H]4O)cc3)cc2S(=O)(=O)O)c(S(=O)(=O)O)c1 [Compound L2] | > 4 h | > 4 h | 29.5 µL/min/mg | 0.56 µM | more than 30% | 50% | complete inhibition |
